The record followed here is US20240093034A1, “FLUORESCENT DYES” (EXOPHARM LIMITED, priority 2020, published 2024).

One series deals with NHDF. Briefly: Imaging human cells labelled with dye (microscopy). In kind it is cell-based. The following applies: 0.2 μM dye. The procedure: (§1) The cells were imaged to assess incorporation of the dyes according to the following procedure. Cell+dye 2 samples were prepared following the procedure in Example 4 with the following modifications: the cells were seeded with NHDF (not older than P9), human umbilical cord-derived mesenchymal stem cells (UC-MSCs) or bone marrow-derived MSCs (BM-MSCs); and the dye 2 was used in a final concentration of 0.2 μM. Before imaging, each well was washed with 1× HBSS (−) once. 100-200 μL of 1× HBSS (−) was added to each well prior to imaging to make sure the cells are not dried out. The cells were imaged on a Thermo Fisher Evos M5000 microscope equipped with the Texas Red filter. Routinely utilized conditions are (magnification, light, exposure, gain): 10× Texas Red, 22, 146, 105; 20× Texas Red, 12, 133, 64; 40× Texas Red, 36, 79, 40. Settings were held constant for all images taken on the same plate.

Series [1] concerns bone marrow-derived MSCs (BM-MSCs). Briefly: Imaging human cells labelled with dye (microscopy). Format: cell-based. The following applies: 0.2 μM dye. The protocol:
as §1

For series [2], the system named is human umbilical cord-derived mesenchymal stem cells (UC-MSCs). Briefly: Imaging human cells labelled with dye (microscopy). The following applies: 0.2 μM dye. In kind it is cell-based. The procedure:
as §1

A further series has as its system CD4+ T cells. Briefly: Multi-donor mixed lymphocyte reaction (mdMLR) assay. Format: cell-based, human. From the text: The immunomodulatory potential of dye 2-labelled and non-labelled MSC-EV preparations were compared in a multi-donor mixed lymphocyte reaction assay (MLR) as described previously (Madel et al., 2020, Independent human mesenchymal stromal cell-derived extracellular vesicle preparations differentially affect symptoms in an advanced murine Graft-versus-Host-Disease model. bioRxiv, 2020.2012.2021.423658). Briefly, Ficoll prepared peripheral blood mononuclear cells (PBMC) of 12 healthy donors were mixed in equal proportions, aliquoted and stored in the vapour phase of liquid nitrogen until usage. After thawing 600,000 cells were seeded per well of a 96-well U-bottom shape plates (Corning, Kaiserslautern, Germany) and cultured in 10% human AB serum (produced in house) and 100 U/mL penicillin and 100 µg/mL streptomycin (Thermo Fisher Scientific) supplemented RPMI 1640 medium (Thermo Fisher Scientific) in a final volume of 200 μL per well, either in the presence or absence of MSC-EV preparations to be tested. After 5 days, cells were harvested, stained with a collection of different fluorescent labelled antibodies (CD4-BV785; BioLegend, San Diego, CA, USA; CD25-PE-Cy5.5; BD Bioscience; and CD54-AF700; EXBIO) and analysed on a Cytoflex flow cytometer (Software CytExpert 2.3, Beckman-Coulter). […]

On to `CCCCCCCCCCCCCCCCCCN(C)C(=O)c1ccccc1-c1c2ccc(=[N+](CC)CC)cc-2oc2cc(N(CC)CC)ccc12.[Cl-]` [Dye 2, Rhodamine B N-methyloctadecylamide], for which the “labelling of cells (microscopy, FIG. 3(a))” value with NHDF is “capable of labelling”. Besides, in series [1], the “labelling of cells (microscopy, FIG. 3(c))” value is given as “capable of labelling”. In series [2], the “labelling of cells (microscopy, FIG. 3(b))” value is recorded as “capable of labelling”. In the series with CD4+ T cells (buffer solved dye alone), the “influence on activation status of CD4+ T cells” value is given as “did not influence the activation status”. For the same compound, the “reduction in CD4+ T cell activation” value in the series on CD4+ T cells (dye 2-labelled MSC-EV preparations (n=3), versus non-labelled) is “comparable reduction”.
